In patent US20240197666A1, “DITERPENOID COMPOUNDS THAT ACT ON PROTEIN KINASE C (PKC)” (K-Gen Therapeutics, Inc., priority 2021, published 2024):

Assays:
Format in all cases: in vivo, mouse
[1] = test system: 4T1-luc2 tumor; experiment: 4T1-luc2 orthotopic breast cancer metastasis model, IT injection
Description: Syngeneic mouse models are frequently used in assessing effect of immune-modulating compounds because both innate and adaptive immune systems are intact in the wild-type mouse strains.
Each 6-8 weeks old female Balb/c mouse was surgically implanted with 1×10^6 4T1-luc2 tumor cells in the abdominal 4th right mammary fat pad for tumor development. The animals were randomized and treatments were started when the average tumor volume reached 86 mm^3. The group assignment, treatment dose, and schedule were as follows:
Mice were monitored daily for clinical signs and body weights were measured regularly as an indirect measure of toxicity. […] .
After grouping, the bioluminescence measurements were taken once per week to monitor tumor growth in the fat pads and metastasis to other organs. Briefly, the mice were weighted and intra-peritoneal injected with luciferin at 150 mg/kg. 10 minutes after the luciferin administration, the animals were pre-anesthetized with the mixture gas of oxygen and isoflurane. The animals were moved into the imaging chamber for bioluminescence measurements with IVIS (Lumina II) in a complete anesthetic state. […] The bioluminescence signal decreased to the baseline range from the third week in three animals. These three animals were monitored for 87 days and their primary tumors were cured without any metastasis (FIG. 9B-9D). […] However, all tumors in the vehicle group mice kept growing, had steady increase in the bioluminescence signals, and had metastasized before mice died before day 40. A Kaplan-Meier method was used to analyze the animal survival rate between the vehicle group (n=12) and the treated group (n=11, one animal died unexpectedly due to animal attacking). The median survival day is 35.5 for the vehicle group and is 42 for the treated group (P<0.05).

[2] = test system: MC38 tumors; experiment: MC38 syngeneic model, efficacy and re-challenge; settings: for Live Animal at Day 50: N 8
Procedure: 8 weeks old female C57B/J6J mice were implanted subcutaneously at the right flank with 3×10^5 MC38 mouse colon cancer cells. Mice were randomized into different treatment groups (see above) when tumors grew to an average mean tumor size of 50-80 mm^3. Tumor size was measured three times weekly in two dimensions using a caliper, and the volume was expressed in mm^3 using the formula: V=0.5a×b^2 where a and b are the long and short diameters of the tumor, respectively. Mice were monitored daily for clinical signs and body weights were measured twice per week. All groups tolerated drug treatments very well with less than 10% body weight loss. […] Scabs formed near the site of IT injection and the skin recovered with minimal scaring within 3-4 weeks.
For the efficacy portion of the study, the major endpoint was the animal survival, defined as time to death or euthanasia when tumors ≥2000 mm^3. The survive rate is the proportion of live animals in each group on a given day. A Kaplan-Meier analysis was performed to compare animal survival between vehicle and treated groups. P<0.05 was considered to be statistically significant. Another endpoint is tumor clearance, for which the mice were monitor for over 50 days after the start of the treatment.
To test if anti-tumor immunity was developed in the cured mice, the re-challenge portion of the study was conducted. The major endpoint was the tumor initiation of the re-implanted tumor cells. Tumor fee survive rate is the proportion of tumor fee mice and the mice whose tumor volumes were below 50 mm^3 in each group on a given day. A Mann-Whitney method was performed to analyze the tumor initiation rate at the end of the re-challenge study and P<0.05 was considered to be statistically significant.
MC38 cells (3×10^5) were re-implanted subcutaneously to the other flank (left flank) of the 8 tumor-eradicated mice (two from group 2, three each from groups 3 and 5). No MC38 tumors formed after 36 days in these 8 tumor-eradicated mice. To study the anti-tumor immunity further in the 8 tumor-eradicated mice, MC38 cells (3×10^5) and unrelated 3LL cells (lung cancer) (2×10^6) were re-implanted and implanted at opposite flanks in these mice. As control, five age-matched naïve mice were implanted with 3LL and MC38 tumor cells at opposite flanks. The re-challenge for control and K1K1-C1348101 groups were performed independently, but with same method and condition.

[3] = test system: CT26 tumors; experiment: CT26 syngeneic model, IT injection, efficacy and re-challenge
Procedure: Each 6-8 weeks old female Balb/c mouse was implanted subcutaneously with 3×10^5 CT26 mouse colon cancer cells. 20 animals were randomized when the average tumor volume reached 60 mm3. Tumor size was measured as described in Example 76. Animal body weight was monitored regularly as an indirect measure of toxicity. All mice tolerated drug treatments very well with less than 10% body weight loss. […] Scabs formed a few days later and the skin recovered with minimal scaring within 3-4 weeks.
For the efficacy portion of the study, the major endpoints were tumor growth inhibition and the animal survival.
To test if anti-tumor immunity was developed in the cured mice, the re-challenge portion of the study was conducted. The major endpoint was the tumor initiation (measurable tumor >50 mm^3) of the re-implanted tumor cells.
CT26 cells (3×10^5) were re-implanted into the right lower flank of the cured animals and 10 age-matched naïve control animals from the same batch to challenge animal immune system. An unrelated 4T1 breast cancer cell line (1×10^5) was implanted in the left upper flank of these animals at the same time. Tumor initiation and tumor growth were monitored. Data points represent group means of the tumor volumes and error bars represent standard error of the mean (SEM).

[4] = 20 mg/ml, 20 μl (400 μg) IT, Balb/c mice
[5] = re-challenge of 8 tumor-eradicated mice with 3LL cells
[6] = re-challenge of 8 tumor-eradicated mice with MC38 cells
[7] = challenge of 6 cured mice with 4T1 cells
[8] = re-challenge of 6 cured mice with CT26 cells, 32 days

CC1=C[C@H]2[C@@]3(O)[C@H](C)C[C@]4(OC(=O)[C@H](N)CCCCCCc5ccccc5)[C@H]([C@@H]3C=C(CO)C[C@]2(O)C1=O)C4(C)C was tested, and the “mean body weight loss” value [1, 4] was “less than 10%”, the median survival day ([1]; 20 mg/ml, 20 μl (400 μg) IT, n=11) was 42 days and the “animals with primary tumors cured without any metastasis” value ([1]; monitored for 87 days, single IT treatment) was “three”. For the same molecule, the “complete eradication of tumors” value ([2]; group 2 (5 mg/ml), 2 out of 8 tumors) was 25%, the “% Increased Survival Time” value ([2]; group 2: 5 mg/ml, 20 μl it) was 45% and the “Increased Survival Time” value ([2]; group 2: 5 mg/ml, 20 μl it) was 9 days. The “Median” value ([2]; group 2: 5 mg/ml, 20 μl it) was 29 days, the “Live Animal at Day 50” value ([2]; group 2: 5 mg/ml, 20 μl it, D 0,1,2,7,8,9) was 2 and the “complete eradication of tumors” value ([2]; group 3 (20 mg/ml), 3 out of 8 tumors) was 37.5%. The “% Increased Survival Time” value ([2]; group 3: 20 mg/ml, 20 μl) was 23%, the “Increased Survival Time” value ([2]; group 3: 20 mg/ml, 20 μl) was 4.5 days and the “Median” value ([2]; group 3: 20 mg/ml, 20 μl) was 24.5 days. The “Live Animal at Day 50” value ([2]; group 3: 20 mg/ml, 20 μl, D 0,1,2) was 3, the “Tumor initiation (mice)” value [2, 5] was 8 and the “Tumor-free (mice)” value [2, 5] was 0. For the same molecule, the “Tumor initiation (mice)” value [2, 6] was 0, the “Tumor-free (mice)” value [2, 6] was 8 and the body weight loss [3, 4] was “less than 10%”. For the same molecule, the “mice alive at day 50 with tumors completely eradicated” value ([3]; N 10) was 6, the median survival ([3]; analysis to day 50) was “not reached” and the “Tumor initiation (mice)” value [3, 7] was 6. For the same molecule, the “Tumor-free (mice)” value [3, 7] was 0, the “mice with tumors eliminated” value ([3]; day 3 after the first IT dose, N 10) was 8 and the mean tumor volume ([3]; day 12, 20 mg/ml, 20 μl IT) was 35 mm^3. For the same molecule, the “mice with tumor relapse” value ([3]; from day 10, N 10) was 4, the “Tumor initiation (mice)” value [3, 8] was 0 and the “Tumor-free (mice)” value [3, 8] was 6.
